What was measured:
Format in all cases: cell-based
[1] = tested on: T1, isoprene monooxygenase (IsoMO) of Rhodococcus sp. AD45; assay: inhibition of isoprene uptake, headspace gas chromatography; settings: whole cells; about 5 μM isoprene in liquid; 50 mM phosphate pH 7.0, 30°C; alkyne in DMSO
T1 construct: gene isoA; native enzyme in whole cells of isoprene-grown bacteria; four-component soluble diiron monooxygenase, a2b2g2 oxygenase; with Isoprene monooxygenase oxygenase component subunit gamma; Isoprene monooxygenase Rieske-type ferredoxin component; Isoprene monooxygenase oxygenase component subunit beta

[2] = tested on: T2, isoprene monooxygenase (IsoMO) of Variovorax sp. WS11; assay: headspace isoprene depletion by gas chromatography, whole cells; settings: whole fermentor-grown cells; O2 co-substrate; read-out: K m(app)
T2 construct: gene isoA; native enzyme in whole fermentor-grown cells; iso genes on a megaplasmid; with Isoprene monooxygenase oxygenase component subunit gamma; Isoprene monooxygenase Rieske-type ferredoxin component; Isoprene monooxygenase oxygenase component subunit beta
Description: headspace isoprene depletion by gas chromatography, whole cells on isoprene monooxygenase (IsoMO) of Variovorax sp. WS11

[3] = tested on: T1, isoprene monooxygenase (IsoMO) of Rhodococcus sp. AD45; assay: headspace substrate depletion, whole cells, non-linear regression; settings: whole isoprene-grown cells; 50 mM phosphate pH 7.0, 30°C; O2 co-substrate; read-out: K m(app)
Description: headspace substrate depletion, whole cells, non-linear regression on isoprene monooxygenase (IsoMO) of Rhodococcus sp. AD45

| SMILES | % inhibition at 50 μM [1] [%] | Km [2] [µM] | Km [3] [µM] |
| --- | --- | --- | --- |
| C#CCCCCCC [1‐octyne] | 74 | – | – |
| C=CC(=C)C [isoprene, 2‐methyl‐1,3‐butadiene] | – | 10.5 ± 3.9 | 4 ± 1.3 |
| C=CC [propylene] | – | – | 2 ± 0.8 |

Source: paper PMC10667655 (Environmental Microbiology Reports, 2023)
